Test system: M. tuberculosis
Experiment: Extracellular activity against M. tuberculosis in cholesterol media (Alamar Blue reduction assay)
Assay type: cell-based, Mycobacterium tuberculosis
Conditions: Mycobacterium tuberculosis, 240 h, 7H12-Cholesterol media, 10 days; read-out: Cholesterol broth: alamar blue--EC50

| SMILES | EC50 [µM] |
| --- | --- |
| Cn1ncnc1CC(=O)N1C[C@H]2C[C@@H](C1)[C@H]2c1nc(-c2ccc(Cl)cc2F)no1 [Compound 224, 1-((1R,5S,6s)-6-(3-(4-chloro-2-fluorophenyl)-1,2,4-oxadiazol-5-yl)-3-azabicyclo[3.1.1]heptan-3-yl)-2-(1-methyl-1H-1,2,4-triazol-5-yl)ethan-1-one] | > 10 |
| Cc1noc(CC(=O)N2CCC3(CC2)CC(c2nc(C4CCCCC4)no2)C3)n1 [Compound 225, 1-(2-(3-cyclohexyl-1,2,4-oxadiazol-5-yl)-7-azaspiro[3.5]nonan-7-yl)-2-(3-methyl-1,2,4-oxadiazol-5-yl)ethan-1-one] | > 10 |
| Cc1noc(CC(=O)N2CCC3(CC2)CC(c2nc(-c4ccc(Cl)c(Cl)c4)no2)C3)n1 [Compound 226, 1-(2-(3-(3,4-dichlorophenyl)-1,2,4-oxadiazol-5-yl)-7-azaspiro[3.5]nonan-7-yl)-2-(3-methyl-1,2,4-oxadiazol-5-yl)ethan-1-one] | 0.109 |
| Cc1noc(CC(=O)N2CCC3(CC2)CC(c2nc(C4CCC(F)(F)CC4)no2)C3)n1 [Compound 227, 1-(2-(3-(4,4-difluorocyclohexyl)-1,2,4-oxadiazol-5-yl)-7-azaspiro[3.5]nonan-7-yl)-2-(3-methyl-1,2,4-oxadiazol-5-yl)ethan-1-one] | > 10 |
| Cc1noc(CC(=O)N2CCC3(CC2)CC(c2nc(-c4ccc(F)c(F)c4)no2)C3)n1 [Compound 228, 1-(2-(3-(3,4-difluorophenyl)-1,2,4-oxadiazol-5-yl)-7-azaspiro[3.5]nonan-7-yl)-2-(3-methyl-1,2,4-oxadiazol-5-yl)ethan-1-one] | 0.294 |
| Cc1nonc1CC(=O)N1CCC2(CC1)CC(c1nc(C3CCCCC3)no1)C2 [Compound 229, 1-(2-(3-cyclohexyl-1,2,4-oxadiazol-5-yl)-7-azaspiro[3.5]nonan-7-yl)-2-(4-methyl-1,2,5-oxadiazol-3-yl)ethan-1-one] | 3.06 |
| Cc1nonc1CC(=O)N1CCC2(CC1)CC(c1nc(-c3ccc(Cl)c(Cl)c3)no1)C2 [Compound 230, 1-(2-(3-(3,4-dichlorophenyl)-1,2,4-oxadiazol-5-yl)-7-azaspiro[3.5]nonan-7-yl)-2-(4-methyl-1,2,5-oxadiazol-3-yl)ethan-1-one] | 0.176 |
| Cc1nonc1CC(=O)N1CCC2(CC1)CC(c1nc(C3CCC(F)(F)CC3)no1)C2 [Compound 231, 1-(2-(3-(4,4-difluorocyclohexyl)-1,2,4-oxadiazol-5-yl)-7-azaspiro[3.5]nonan-7-yl)-2-(4-methyl-1,2,5-oxadiazol-3-yl)ethan-1-one] | > 10 |
| Cc1nonc1CC(=O)N1CCC2(CC1)CC(c1nc(-c3ccc(F)c(F)c3)no1)C2 [Compound 232, 1-(2-(3-(3,4-difluorophenyl)-1,2,4-oxadiazol-5-yl)-7-azaspiro[3.5]nonan-7-yl)-2-(4-methyl-1,2,5-oxadiazol-3-yl)ethan-1-one] | 0.257 |
| Cc1nonc1CC(=O)N1CCC2(CC1)CC(c1nc(-c3ccc(F)cc3)no1)C2 [Compound 233, 1-(2-(3-(4-fluorophenyl)-1,2,4-oxadiazol-5-yl)-7-azaspiro[3.5]nonan-7-yl)-2-(4-methyl-1,2,5-oxadiazol-3-yl)ethan-1-one] | 0.45 |
| Cc1noc(CC(=O)N2CCN(c3nc(-c4ccc(Cl)c(Cl)c4)no3)CC2)n1 [Compound 234, 1-(4-(3-(3,4-dichlorophenyl)-1,2,4-oxadiazol-5-yl)piperazin-1-yl)-2-(3-methyl-1,2,4-oxadiazol-5-yl)ethan-1-one] | > 10 |
| Cc1nonc1CC(=O)N1CCN(c2nc(-c3ccc(Cl)c(Cl)c3)no2)CC1 [Compound 235, 1-(4-(3-(3,4-dichlorophenyl)-1,2,4-oxadiazol-5-yl)piperazin-1-yl)-2-(4-methyl-1,2,5-oxadiazol-3-yl)ethan-1-one] | 0.27 |
| Cc1nonc1CC(=O)N1CCN(c2nc(-c3ccc(F)cc3)no2)CC1 [Compound 236, 1-(4-(3-(4-fluorophenyl)-1,2,4-oxadiazol-5-yl)piperazin-1-yl)-2-(4-methyl-1,2,5-oxadiazol-3-yl)ethan-1-one] | 0.649 |
| Cc1nonc1CC(=O)N1CCC2(CC1)CC2c1nc(-c2ccc(F)cc2)no1 (stereo not shown) [Compound 237, 1-(1-(3-(4-fluorophenyl)-1,2,4-oxadiazol-5-yl)-6-azaspiro[2.5]octan-6-yl)-2-(4-methyl-1,2,5-oxadiazol-3-yl)ethan-1-one] | > 10 |
| Cc1noc(CC(=O)N2CCC3(CC2)CC3c2nc(-c3ccc(F)cc3)no2)n1 (stereo not shown) [Compound 238, 1-(1-(3-(4-fluorophenyl)-1,2,4-oxadiazol-5-yl)-6-azaspiro[2.5]octan-6-yl)-2-(3-methyl-1,2,4-oxadiazol-5-yl)ethan-1-one] | > 10 |
| Cc1noc(CC(=O)N2CCC3(CCC3c3nc(-c4ccc(Cl)c(Cl)c4)no3)CC2)n1 (stereo not shown) [Compound 239, 1-(1-(3-(3,4-dichlorophenyl)-1,2,4-oxadiazol-5-yl)-7-azaspiro[3.5]nonan-7-yl)-2-(3-methyl-1,2,4-oxadiazol-5-yl)ethan-1-one] | > 25 |
| Cc1noc(CC(=O)N2CCC3(CCC3c3nc(-c4ccc(F)cc4)no3)CC2)n1 (stereo not shown) [Compound 240, 1-(1-(3-(4-fluorophenyl)-1,2,4-oxadiazol-5-yl)-7-azaspiro[3.5]nonan-7-yl)-2-(3-methyl-1,2,4-oxadiazol-5-yl)ethan-1-one] | > 10 |

| SMILES | EC50 [µM] |
| --- | --- |
| Cc1nonc1CC(=O)N1CCC2(CCC2c2nc(-c3ccc(F)cc3)no2)CC1 (stereo not shown) [Compound 241, 1-(1-(3-(4-fluorophenyl)-1,2,4-oxadiazol-5-yl)-7-azaspiro[3.5]nonan-7-yl)-2-(4-methyl-1,2,5-oxadiazol-3-yl)ethan-1-one] | > 10 |
| Cc1noc(CC(=O)N2CC3CC(C2)C3n2nnc(-c3ccc(F)cc3)n2)n1 (stereo not shown) [Compound 242, 1-(6-(5-(4-fluorophenyl)-2H-tetrazol-2-yl)-3-azabicyclo[3.1.1]heptan-3-yl)-2-(3-methyl-1,2,4-oxadiazol-5-yl)ethan-1-one] | > 25 |
| Cc1nonc1CC(=O)N1CC2CC(C1)C2n1nnc(-c2ccc(F)cc2)n1 (stereo not shown) [Compound 243, 1-(6-(5-(4-fluorophenyl)-2H-tetrazol-2-yl)-3-azabicyclo[3.1.1]heptan-3-yl)-2-(4-methyl-1,2,5-oxadiazol-3-yl)ethan-1-one] | > 10 |
| Cc1nonc1CC(=O)N1CCCC(n2cc(C(=O)N3CCOCC3)nn2)C1 (stereo not shown) [Compound 244, 2-(4-methyl-1,2,5-oxadiazol-3-yl)-1-(3-(4-(morpholine-4-carbonyl)-1H-1,2,3-triazol-1-yl)piperidin-1-yl)ethan-1-one] | > 10 |
| CCN(CC)C(=O)c1cn(C2CCCN(C(=O)Cc3nonc3C)C2)nn1 (stereo not shown) [Compound 245, N,N-diethyl-1-(1-(2-(4-methyl-1,2,5-oxadiazol-3-yl)acetyl)piperidin-3-yl)-1H-1,2,3-triazole-4-carboxamide] | > 10 |
| Cc1nonc1CC(=O)N1CCCC(n2cc(C(=O)NCCO)nn2)C1 (stereo not shown) [Compound 246, N-(2-hydroxyethyl)-1-(1-(2-(4-methyl-1,2,5-oxadiazol-3-yl)acetyl)piperidin-3-yl)-1H-1,2,3-triazole-4-carboxamide] | > 10 |
| Cc1nonc1CC(=O)N1CCC2(CC1)CC(n1nnc(-c3ccc(F)cc3)n1)C2 [Compound 247, 1-(2-(5-(4-fluorophenyl)-2H-tetrazol-2-yl)-7-azaspiro[3.5]nonan-7-yl)-2-(4-methyl-1,2,5-oxadiazol-3-yl)ethan-1-one] | 1.25 |
| Cc1nonc1CC(=O)N1CCCC(n2nnc(-c3ccc(F)cc3)n2)C1 (stereo not shown) [Compound 248, 1-(3-(5-(4-fluorophenyl)-2H-tetrazol-2-yl)piperidin-1-yl)-2-(4-methyl-1,2,5-oxadiazol-3-yl)ethan-1-one] | > 10 |
| Cc1nonc1CC(=O)N1CC2CCC(C1)C2c1nc(-c2ccc(F)cc2)no1 (stereo not shown) [Compound 249, 1-(8-(3-(4-fluorophenyl)-1,2,4-oxadiazol-5-yl)-3-azabicyclo[3.2.1]octan-3-yl)-2-(4-methyl-1,2,5-oxadiazol-3-yl)ethan-1-one] | 1.29 |
| Cc1nonc1CC(=O)N1CCN(c2ncn(-c3ccc(F)cc3)n2)CC1 [Compound 250, 1-(4-(1-(4-fluorophenyl)-1H-1,2,4-triazol-3-yl)piperazin-1-yl)-2-(4-methyl-1,2,5-oxadiazol-3-yl)ethan-1-one] | > 10 |
| Cc1nonc1NC(=O)C1CCC(c2nc(-c3ccc(F)cc3)no2)CC1 (stereo not shown) [Compound 251, 4-(3-(4-fluorophenyl)-1,2,4-oxadiazol-5-yl)-N-(4-methyl-1,2,5-oxadiazol-3-yl)cyclohexane-1-carboxamide] | > 10 |
| Cc1nonc1CC(=O)N1CCC(c2cnc(-c3ccc(F)cc3)nc2)CC1 [Compound 252, 1-(4-(2-(4-fluorophenyl)pyrimidin-5-yl)piperidin-1-yl)-2-(4-methyl-1,2,5-oxadiazol-3-yl)ethan-1-one] | 2.91 |
| Cc1nonc1CC(=O)N1CCC(c2ncc(-c3ccc(F)cc3)cn2)CC1 [Compound 253, 1-(4-(5-(4-fluorophenyl)pyrimidin-2-yl)piperidin-1-yl)-2-(4-methyl-1,2,5-oxadiazol-3-yl)ethan-1-one] | > 10 |
| Cc1cccc(OC2CCN(C(=O)Cc3nonc3C)CC2)c1C [Compound 254, 1-(4-(2,3-dimethylphenoxy)piperidin-1-yl)-2-(4-methyl-1,2,5-oxadiazol-3-yl)ethan-1-one] | > 10 |
| Cc1nonc1CC(=O)N1CCC(c2ccc(-c3ccc(F)cc3)nn2)CC1 [Compound 255, 1-(4-(6-(4-fluorophenyl)pyridazin-3-yl)piperidin-1-yl)-2-(4-methyl-1,2,5-oxadiazol-3-yl)ethan-1-one] | > 10 |
| Cc1nonc1CC(=O)N1CCCC(c2nc(-c3ccc(F)cc3)no2)C1 (stereo not shown) [Compound 256, 1-(3-(3-(4-fluorophenyl)-1,2,4-oxadiazol-5-yl)piperidin-1-yl)-2-(4-methyl-1,2,5-oxadiazol-3-yl)ethan-1-one] | > 10 |
| Cc1nonc1CC(=O)N1CC(c2nc(-c3ccc(F)cc3)no2)C1 [Compound 257, 1-(3-(3-(4-fluorophenyl)-1,2,4-oxadiazol-5-yl)azetidin-1-yl)-2-(4-methyl-1,2,5-oxadiazol-3-yl)ethan-1-one] | > 10 |
